Experimental data reported in ChEMBL document CHEMBL1201862, “PubChem BioAssay data set” (2004).
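These data come from cells grown in 96-well plates and exposed to compound for 48 hours at five concentrations. At the GI50, growth is halved.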 Calls of active or inactive are those of the source. Rule as the data show it: active = GI50 up to about 1.1 µM and inactive = higher.

Key:
Experiment in all cases: NCI-60 cell line screen, 48 h
NCI-H522 = system: NCI-H522
UO-31 = system: UO-31
RPMI-8226 = system: RPMI-8226
LOX IMVI = system: LOX IMVI
U-251 = system: U-251
SR = system: SR
KM12 = system: KM12
PC-3 = system: PC-3
NCI-H226 = system: NCI-H226
MDA-N = system: MDA-N
SNB-75 = system: SNB-75
A549 = system: A549
M14 = system: M14
SK-MEL-28 = system: SK-MEL-28
SW-620 = system: SW-620
OVCAR-5 = system: OVCAR-5
HCT-116 = system: HCT-116
DU-145 = system: DU-145
SN12C = system: SN12C
IGROV-1 = system: IGROV-1
NCI/ADR-RES = system: NCI/ADR-RES
HOP-62 = system: HOP-62
COLO 205 = system: COLO 205
SF-539 = system: SF-539
ACHN = system: ACHN
SNB-19 = system: SNB-19
OVCAR-4 = system: OVCAR-4
CCRF-CEM = system: CCRF-CEM
EKVX = system: EKVX
HCT-15 = system: HCT-15
SF-268 = system: SF-268
UACC-257 = system: UACC-257
MDA-MB-435 = system: MDA-MB-435
K562 = system: K562
OVCAR-3 = system: OVCAR-3
SF-295 = system: SF-295
SK-MEL-2 = system: SK-MEL-2
786-0 = system: 786-0
Hs-578T = system: Hs-578T
T47D = system: T47D
RXF 393 = system: RXF 393
NCI-H23 = system: NCI-H23
MCF7 = system: MCF7
HOP-92 = system: HOP-92
UACC-62 = system: UACC-62
HT-29 = system: HT-29
HCC 2998 = system: HCC 2998
SK-MEL-5 = system: SK-MEL-5
MDA-MB-231 = system: MDA-MB-231
Malme-3M = system: Malme-3M
TK-10 = system: TK-10
NCI-H460 = system: NCI-H460
CAKI-1 = system: CAKI-1
HL-60 = system: HL-60
OVCAR-8 = system: OVCAR-8
MOLT-4 = system: MOLT-4
A498 = system: A498
BT-549 = system: BT-549
SK-OV-3 = system: SK-OV-3

Measured: GI50

Cc1ccc(-c2c3nc(c(-c4ccc(C)cc4)c4ccc([nH]4)c(-c4ccc(OCC5COC(C)(C)O5)cc4)c4nc(c(-c5ccc(C)cc5)c5ccc2[nH]5)C=C4)C=C3)cc1 (stereo not drawn)
> 31.6 µM: HCT-15
inactive: NCI-H522 > 31.6 µM | UO-31 > 31.6 µM | RPMI-8226 > 100 µM | LOX IMVI > 31.6 µM | U-251 > 31.6 µM | SR > 31.6 µM | KM12 > 31.6 µM | PC-3 > 10 µM | NCI-H226 > 31.6 µM | MDA-N > 31.6 µM | SNB-75 10.2 µM | A549 > 31.6 µM | M14 > 31.6 µM | SK-MEL-28 > 31.6 µM | SW-620 > 31.6 µM | OVCAR-5 > 31.6 µM | HCT-116 > 31.6 µM | DU-145 > 31.6 µM | SN12C > 31.6 µM | IGROV-1 > 31.6 µM | NCI/ADR-RES > 31.6 µM | HOP-62 > 31.6 µM | COLO 205 > 31.6 µM | SF-539 > 31.6 µM | ACHN > 31.6 µM | SNB-19 > 31.6 µM | OVCAR-4 > 31.6 µM | CCRF-CEM > 10 µM | EKVX 13.5 µM | SF-268 > 31.6 µM | UACC-257 > 31.6 µM | MDA-MB-435 > 31.6 µM | K562 > 10 µM | OVCAR-3 > 31.6 µM | SF-295 20.5 µM | SK-MEL-2 > 31.6 µM | 786-0 > 31.6 µM | Hs-578T 10.3 µM | T47D > 31.6 µM | RXF 393 > 10 µM | NCI-H23 > 31.6 µM | MCF7 > 31.6 µM | HOP-92 > 100 µM | UACC-62 > 10 µM | HT-29 > 31.6 µM | HCC 2998 > 31.6 µM | SK-MEL-5 > 31.6 µM | MDA-MB-231 > 31.6 µM | Malme-3M > 31.6 µM | TK-10 21 µM | NCI-H460 > 31.6 µM | CAKI-1 > 100 µM | HL-60 > 10 µM | OVCAR-8 25.1 µM | MOLT-4 > 31.6 µM | A498 1.13 µM | BT-549 > 100 µM | SK-OV-3 > 10 µM

Cc1cc(C)c2c(O)cc(-c3ccc(Cl)cc3)nc2n1
21.9 µM: HCT-15
inactive: NCI-H522 46.8 µM | UO-31 41.8 µM | RPMI-8226 30.3 µM | LOX IMVI 35.5 µM | U-251 36.8 µM | SR 37.6 µM | KM12 16.3 µM | PC-3 14.9 µM | NCI-H226 > 100 µM | MDA-N 7.11 µM | SNB-75 33.2 µM | A549 30.6 µM | M14 25.7 µM | SK-MEL-28 28.3 µM | SW-620 26.6 µM | OVCAR-5 > 100 µM | HCT-116 24.2 µM | DU-145 54.1 µM | SN12C > 33 µM | IGROV-1 27.4 µM | NCI/ADR-RES > 31.8 µM | HOP-62 44.8 µM | COLO 205 24.7 µM | SF-539 > 100 µM | ACHN 48 µM | SNB-19 94 µM | OVCAR-4 21.6 µM | CCRF-CEM 69.3 µM | EKVX > 56.2 µM | SF-268 > 100 µM | UACC-257 24.4 µM | MDA-MB-435 6.79 µM | K562 9.79 µM | OVCAR-3 26.9 µM | SF-295 28.2 µM | SK-MEL-2 47 µM | 786-0 > 46.5 µM | Hs-578T > 100 µM | T47D 40 µM | RXF 393 43.7 µM | NCI-H23 75 µM | MCF7 27.2 µM | HOP-92 9.27 µM | UACC-62 60.4 µM | HT-29 19.9 µM | HCC 2998 27.6 µM | SK-MEL-5 17.1 µM | MDA-MB-231 > 27.9 µM | Malme-3M 30.8 µM | TK-10 > 100 µM | NCI-H460 25.8 µM | CAKI-1 37.4 µM | HL-60 23.1 µM | OVCAR-8 > 100 µM | MOLT-4 22.5 µM | A498 32.4 µM | BT-549 23.6 µM | SK-OV-3 84.9 µM
